Reference: patent US12090195B2 (priority 2018, dated 2024)

Key:
[1] = test system: six microorganisms (bacteria, yeast, fungus); format: cell-based
mice = conditions: mouse, in vivo, ip; cited from earlier work

SMILES | antimicrobial activity against yeast and fungi [1] | LD50 (mice) [mg/kg]
OCCOc1ccccc1 [Combination 2-PE, 2-Phenoxyethanol] | weaker antimicrobial activity than Thiomersal | 
COC(=O)c1ccc(O)cc1 [methyl paraben] |  | 1000
